{"source": "patent US8741932B2", "about": "“Imidazopyridine derivatives” (Piramal Enterprises Limited, priority 2009, dated 2014)", "tested_on": "IL-6", "test": "Human monocyte assay, LPS-stimulated IL-6", "assay_type": "cell-based", "details": "human monocytes, 1 μg/ml LPS, 5 hours", "protocol": "The assay was designed as in the reference, Physiol.\nPeripheral blood mononuclear cells (hPBMC) were harvested from human blood and suspended in RPMI 1640 culture medium containing 10% FCS, 100 U/mL penicillin and […] streptomycin (assay medium). Monocytes in the hPBMCs were counted using a Coulter Counter following which the cells were resuspended at 2×10^5 monocytes/mL. A cell suspension containing 2×10^4 monocytes was aliquoted per well of a 96-well plate. Subsequently, the hPBMCs were incubated for 4-5 hours at 37° C., 5% CO2 (During the incubation, the monocytes adhered to the bottom of 96-well plastic culture plate). Following the incubation, the non-adherent lymphocytes were washed with assay medium and the adherent monocytes re-fed with assay medium. After a 48-hour incubation period (37° C., 5% CO2), monocytes were pretreated with various concentrations of representative compounds of present invention (refer to table 6 and 7) (prepared in DMSO) or vehicle (0.5% DMSO) for 30 minutes and stimulated with 1 μg/ml LPS (Escherchia coli 0111:B4, Sigma Chemical Co., St. Louis, Mo.). The incubation was continued for 5 hours at 37° C., 5% CO2. Supernatants were harvested, assayed for IL-6 and TNF-α by ELISA as described by the manufacturer (BD Biosciences, USA). Dexamethasone (10 μM) was used as standard for this assay. […] Biological results for both IL-6 and TNFα are indicated in Table 6 and Table 7 respectively."}
{"smiles": "COC(=O)c1ccc(S(=O)(=O)N(C)/N=C/c2cnc3ccc(-c4cccnc4)cn23)o1", "note": "[Example 73, (E)-Methyl 5-(1-methyl-2-((6-(pyridin-3-yl)imidazo[1,2-a]pyridin-3-yl)methylene) hydrazinylsulfonyl) furan-2-carboxylate]", "values": [{"measurement": "IC50", "result": "≥ 5", "unit": "µM"}]}
{"smiles": "CN(/N=C/c1cnc2ccc(-c3cccnc3)cn12)S(=O)(=O)c1ccc(Cl)c([N+](=O)[O-])c1", "note": "[Example 74, (E)-4-chloro-N-methyl-3-nitro-N′-((6-(pyridin-3-yl)imidazo[1,2-a]pyridin-3-yl)methylene) benzenesulfonohydrazide]", "values": [{"measurement": "IC50", "setting": "Monocyte", "result": "0.001 to 5", "unit": "µM"}]}
{"smiles": "Cc1ccc(F)cc1S(=O)(=O)N(C)/N=C/c1cnc2ccc(-c3cccnc3F)cn12", "note": "[Example 87, (E)-5-Fluoro-N′-((6-(2-fluoropyridin-3-yl)imidazo[1,2-a]pyridin-3-yl)methylene)-N,2-dimethylbenzenesulfonohydrazide]", "values": [{"measurement": "IC50", "setting": "Monocyte", "result": "0.001 to 5", "unit": "µM"}]}
{"smiles": "Cc1cc(-c2cccnc2)cn2c(/C=N/N(C)S(=O)(=O)c3cc(F)cc(F)c3)cnc12", "note": "[Example 101]", "values": [{"measurement": "IC50", "result": "0.001 to 5", "unit": "µM"}]}
{"smiles": "Cc1cc(-c2cccnc2)cn2c(/C=N/N(C)S(=O)(=O)c3ccccc3C#N)cnc12", "note": "[Example 104, (E)-2-cyano-N-methyl-N′-((8-methyl-6-(pyridin-3-yl)imidazo[1,2-a]pyridin-3-yl)methylene)benzenesulfonohydrazide]", "values": [{"measurement": "IC50", "setting": "Monocyte", "result": "≥ 5", "unit": "µM"}]}
{"smiles": "Cc1cc(-c2cccnc2)cn2c(/C=N/N(C)S(=O)(=O)c3cccc(C#N)c3)cnc12", "note": "[Example 106, (E)-3-cyano-N-methyl-N′-((8-methyl-6-(pyridin-3-yl)imidazo[1,2-a]pyridin-3-yl)methylene)benzenesulfonohydrazide]", "values": [{"measurement": "IC50", "setting": "Monocyte", "result": "≥ 5", "unit": "µM"}]}
{"smiles": "Cc1cc(S(=O)(=O)N(C)/N=C/c2cnc3c(C)cc(-c4cccnc4)cn23)ccc1Br", "note": "[Example 107, (E)-4-Bromo-N,3-dimethyl-N′-((8-methyl-6-(pyridin-3-yl)imidazo[1,2-a]pyridin-3-yl)methylene)benzenesulfonohydrazide]", "values": [{"measurement": "IC50", "setting": "Monocyte", "result": "0.001 to 5", "unit": "µM"}]}
{"smiles": "Cc1cc(-c2cccnc2)cn2c(/C=N/N(C)S(=O)(=O)c3cccc([N+](=O)[O-])c3)cnc12", "note": "[Example 109, (E)-N-methyl-N′-((8-methyl-6-(pyridin-3-yl)imidazo[1,2-a]pyridin-3-yl)methylene)-3-nitrobenzenesulfonohydrazide]", "values": [{"measurement": "IC50", "setting": "Monocyte", "result": "≥ 5", "unit": "µM"}]}
{"smiles": "Cc1cc(-c2cccnc2)cn2c(/C=N/N(C)S(=O)(=O)c3cccc(Cl)c3)cnc12", "note": "[Example 110, (E)-3-Chloro-N-methyl-N′-((8-methyl-6-(pyridin-3-yl)imidazo[1,2-a]pyridin-3-yl)methylene)benzenesulfonohydrazide]", "values": [{"measurement": "IC50", "setting": "Monocyte", "result": "≥ 5", "unit": "µM"}]}
{"smiles": "Cc1cc(-c2cccnc2)cn2c(/C=N/N(C)S(=O)(=O)c3c(F)cc(F)cc3Br)cnc12", "note": "[Example 112]", "values": [{"measurement": "IC50", "result": "≥ 5", "unit": "µM"}]}
{"smiles": "Cc1cc(-c2cccnc2)cn2c(/C=N/N(C)S(=O)(=O)c3ccc(Cl)c([N+](=O)[O-])c3)cnc12", "note": "[Example 113, (E)-4-Chloro-N-methyl-N′-((8-methyl-6-(pyridin-3-yl)imidazo[1,2-a]pyridin-3-yl)methylene)-3-nitrobenzenesulfonohydrazide]", "values": [{"measurement": "IC50", "setting": "Monocyte", "result": "0.001 to 5", "unit": "µM"}]}
{"smiles": "Cc1cc(-c2cccnc2)cn2c(/C=N/N(C)S(=O)(=O)c3ccc(F)cc3Br)cnc12", "note": "[Example 114, (E)-2-Bromo-4-fluoro-N-methyl-N′-((8-methyl-6-(pyridin-3-yl)imidazo[1,2-a]pyridin-3-yl)methylene)benzenesulfonohydrazide]", "values": [{"measurement": "IC50", "setting": "Monocyte", "result": "≥ 5", "unit": "µM"}]}
{"smiles": "Cc1cc2ncc(C=NN(C)S(=O)(=O)c3ccccc3C#N)n2cc1-c1cccnc1", "note": "[Example 117, 2-Cyano-N-methyl-N′-((7-methyl-6-(pyridin-3-yl)imidazo[1,2-a]pyridin-3-yl)methylene) benzenesulfonohydrazide]", "values": [{"measurement": "IC50", "setting": "Monocyte", "result": "≥ 5", "unit": "µM"}]}
{"smiles": "Cc1cc2ncc(C=NN(C)S(=O)(=O)c3cc(F)ccc3C)n2cc1-c1cccnc1", "note": "[Example 118, 5-Fluoro-N, 2-dimethyl-N′-((7-methyl-6-(pyridin-3-yl)imidazo[1,2-a]pyridin-3-yl)methylene) benzenesulfonohydrazide]", "values": [{"measurement": "IC50", "setting": "Monocyte", "result": "≥ 5", "unit": "µM"}]}
{"smiles": "Cc1cccc(S(=O)(=O)N(C)/N=C/c2cnc3ccc(-c4cccnc4)c(C)n23)c1", "note": "[Example 127, (E)-N,3-dimethyl-N′-((5-methyl-6-(pyridin-3-yl)imidazo[1,2-a]pyridin-3-yl)methylene)benzenesulfonohydrazide]", "values": [{"measurement": "IC50", "setting": "Monocyte", "result": "≥ 5", "unit": "µM"}]}
{"smiles": "Cc1ccc(-c2ccc3ncc(/C=N/N(C)S(=O)(=O)c4cc(F)ccc4C)n3c2)cn1", "note": "[Example 128, (E)-5-fluoro-N,2-dimethyl-N′-((6-(6-methylpyridin-3-yl)imidazo[1,2-a]pyridin-3-yl)methylene)benzenesulfonohydrazide]", "values": [{"measurement": "IC50", "setting": "Monocyte", "result": "0.001 to 5", "unit": "µM"}]}
{"smiles": "Cc1ccc(-c2ccc3ncc(/C=N/N(C)S(=O)(=O)c4ccccc4OC(F)(F)F)n3c2)cn1", "note": "[Example 129, (E)-N-methyl-N′-((6-(6-methylpyridin-3-yl)imidazo[1,2-a]pyridin-3-yl)methylene)-2-(trifluoromethoxy)benzenesulfonohydrazide]", "values": [{"measurement": "IC50", "setting": "Monocyte", "result": "≥ 5", "unit": "µM"}]}
{"smiles": "COc1ccc(F)cc1S(=O)(=O)N(C)/N=C/c1cnc2ccc(-c3ccc(C)nc3)cn12", "note": "[Example 130, (E)-5-Fluoro-2-methoxy-N-methyl-N′-((6-(6-methylpyridin-3-yl)imidazo[1,2-a]pyridin-3-yl)methylene)benzenesulfonohydrazide]", "values": [{"measurement": "IC50", "setting": "Monocyte", "result": "0.001 to 5", "unit": "µM"}]}
{"smiles": "Cc1ccc(-c2ccc3ncc(/C=N/N(C)S(=O)(=O)c4ccccc4C)n3c2)cn1", "note": "[Example 131, (E)-N,2-dimethyl-N′-((6-(6-methylpyridin-3-yl)imidazo[1,2-a]pyridin-3-yl)methylene)benzenesulfonohydrazide]", "values": [{"measurement": "IC50", "setting": "Monocyte", "result": "≥ 5", "unit": "µM"}]}
{"smiles": "Cc1ccc(F)cc1S(=O)(=O)N(C)/N=C/c1cnc2ccc(-c3cnc(F)c(C)c3)cn12", "note": "[Example 134, (E)-5-Fluoro-N′-((6-(6-fluoro-5-methylpyridin-3-yl)imidazo[1,2-a]pyridin-3-yl)methylene)-N,2-dimethylbenzenesulfonohydrazide]", "values": [{"measurement": "IC50", "setting": "Monocyte", "result": "0.001 to 5", "unit": "µM"}]}
{"smiles": "Cc1ccc(F)cc1S(=O)(=O)N(C)/N=C/c1cnc2ccc(-c3ccc(Cl)nc3)cn12", "note": "[Example 135, (E)-N′-((6-(6-Chloropyridins-3-yl)imidazo[1,2-a]pyridin-3-yl)methylene)-5-fluoro-N,2-dimethylbenzenesulfonohydrazide]", "values": [{"measurement": "IC50", "result": "0.001 to 5", "unit": "µM"}]}
{"smiles": "COc1ccc(-c2ccc3ncc(/C=N/N(C)S(=O)(=O)c4cc(F)ccc4C)n3c2)cn1", "note": "[Example 137, (E)-5-fluoro-N′-((6-(6-methoxypyridin-3-yl)imidazo[1,2-a]pyridin-3-yl)methylene)-N,2-dimethylbenzenesulfonohydrazide]", "values": [{"measurement": "IC50", "setting": "Monocyte", "result": "≥ 5", "unit": "µM"}]}
{"smiles": "COc1ncc(-c2ccc3ncc(/C=N/N(C)S(=O)(=O)c4cc(F)ccc4C)n3c2)cn1", "note": "[Example 138, (E)-5-Fluoro-N-((6-(2-methoxypyrimidin-5-yl)imidazo[1,2-a]pyridine-3-yl)methylene)-N, 2-dimethylbenzenesulfonohydrazide]", "values": [{"measurement": "IC50", "result": "≥ 5", "unit": "µM"}]}
{"smiles": "Cc1ccc(F)cc1S(=O)(=O)N(C)/N=C/c1cnc2ccc(-c3cncc(C(F)(F)F)c3)cn12", "note": "[Example 139, (E)-5-fluoro-N, 2-dimethyl-N′-((6-(5-(trifluoromethyl)pyridin-3-yl)imidazo[1,2-a]pyridin-3-yl)methylene) benzenesulfonohydrazide]", "values": [{"measurement": "IC50", "setting": "Monocyte", "result": "≥ 5", "unit": "µM"}]}
{"smiles": "CN(/N=C/c1cnc2ccc(-c3cccnc3)cn12)C(=O)NCc1ccccc1", "note": "[Example 141, (E)-N-benzyl-1-methyl-2-((6-(pyridin-3-yl)imidazo[1,2-a]pyridin-3-yl)methylene)hydrazinecarboxamide]", "values": [{"measurement": "IC50", "setting": "Monocyte", "result": "0.001 to 5", "unit": "µM"}]}
